Structures are written as SMILES.

The test system of experiment [1] is fasting blood glucose [空腹時血糖値]. Briefly: Example 1: fasting blood glucose in high-fat-diet ICR mice, olanzapine and β-glucan. Format: in vivo, mouse. As to conditions: male ICR mice, 4 weeks, 16 h fast, tail vein, olanzapine 3 mg/kg/day p.o. and/or β-glucan 5 v/v% in drinking water, mean ± SD, high-fat control 84.4±14.65, normal diet control 72.6±10.49.
Experiment [2] deals with fasting blood glucose [空腹時血糖値]. Briefly: Example 2: fasting blood glucose in high-fat-diet ICR mice, clozapine and β-glucan. Format: in vivo, mouse. The note with it: male ICR mice, 4 weeks, 16 h fast, tail vein, clozapine 5 mg/kg/day p.o. with or without β-glucan 5 v/v% in drinking water.

Consider `Cc1cc2c(s1)Nc1ccccc1N=C2N1CCN(C)CC1` [オランザピン], for which, in experiment [1], the “fasting blood glucose, mean” value came to 124.8 ± 16.44 mg/dL.

`CN1CCN(C2=Nc3cc(Cl)ccc3Nc3ccccc32)CC1` [クロザピン] yielded a fasting blood glucose in experiment [2] of 124.0 ± 8.91 mg/dL.

The values above are taken from JP2014074001A, “抗精神病剤” (KONAN MEDICAL CO Ltd, priority 2012, dated 2014).
